Reference: article PMC7179958 (CPT: Pharmacometrics & Systems Pharmacology, 2020)

How the values were obtained:
[1] = test system: human hepatocytes; experiment: Uptake of pitavastatin and eltrombopag in cryopreserved human hepatocytes (oil spin method), comeasurement, micro‐rate constant mechanistic model; type: in vitro ADME
Experimental: Human hepatocytes were obtained from BioIVT (Brussels, Belgium; lot number: LYB; 10 donor LiverPool (8 Caucasians, 1 African American, and 1 Hispanic) and thawed according to supplier guidelines in Leibovitz L15 medium. Hepatocytes were kept on ice prior to use and were used within 3 hours of defrosting.
Cells were separated using an oil spin method similar to the literature. ^11 , ^17 After separation, the tubes were frozen on dry ice and the bottom layer was cut off.
A dilution factor of 100 was used to scale from pmol/mL/1 × 10^5 cells to nmol/mL/1 × 10^6 cells.
Passive rate constants for movement into and out of the cell (k f.X and k bX, respectively) as well as uptake transporter‐mediated rate constants for association to the transporter (k aX) and dissociation (k dX) and translocation (k tX) from the transporter into the medium and cell, respectively. […] The sets of ODEs for all the models (models 1–4; Table 1 ) tested for structural identifiability and used for parameter estimation are included in the Supplemental Material .
Parameter estimation was conducted within Monolix 2018 R2 (Lixoft, Antony, France) for each concentration and experiment as an individual data set, where to ensure positivity, a log‐normal distribution was assumed for each parameter, with a proportional residual error model for the observations.
Hepatocyte Incubations. […] Eltrombopag was dissolved in DMSO to give 30 µmol/mL, then diluted 333-fold to 90 nmol/mL in Leibovitz L15 medium. […] Briefly, 0.5 mL microtubes (12049877, Thermo-Fisher Scientific, Gothenburg, Sweden) layered with 15 µL of 4 % cesium chloride onto which 140 µL of 8:2 silicone oil: mineral oil, with oil red O was added. Samples were taken by transferring 100 µL of hepatocyte suspension into the microtube and spun for 15 s in a Minispin centrifuge (Eppendorf, Horsholm, Denmark), during which time the hepatocytes passed through the oil into the cesium chloride bottom layer. The tubes were then frozen on dry ice and the bottom layer cut off once frozen into a 1 mL deep well plate (260252, Thermo-Fisher Scientific, Gothenburg, Sweden).
Sample Extraction. 50 µL of water suitable for UPLC (MilliQ ELGA water, Merck-Millipore, Solna, Sweden) and 150 µL of stop solution (50:50 MeOH:MeCN, containing 0.8 % formic acid and 4 pmol/mL 5,5-diethyl-1,3-diphenyl-2-iminobarbituric acid as internal standard) were added to the frozen samples of the cut-off tube bottoms. Samples were mixed on a plate shaker for 1 h and then stored at – 80 °C overnight. Prior to analysis, samples were defrosted and mixed for 30 min before centrifugation of the plates at 4000 g for 20 min at 4 °C. Samples were transferred to a conical bottomed 96 well plate for analysis (249944, Thermo-Fisher Scientific, Gothenburg, Sweden) and diluted 1:1 with MilliQ ELGA water.
Mechanistic Modeling. […] An estimate for the total amount of transporters (To) can be obtained during the mechanistic modeling process (9, 10), and therefore Tf can be replaced using the conservation law during parameter estimation:
Parameter estimation for all model were conducted within the Monolix suite 2018 R2 (Lixoft, Antony, France) where to ensure positivity, a log-normal distribution was assumed for each parameter in the candidate models, together with a proportional residual error model for the observations.

[2] = cited from earlier work
[3] = model 1, conditional mode (minimum‐maximum) for 1 × 10^6 cells
[4] = model 1 micro‐rate constants, conditional mode (minimum‐maximum) for 1 × 10^6 cells
[5] = eltrombopag only, single 75 mg, plasma

CC1=NN(c2ccc(C)c(C)c2)C(=O)/C1=N\Nc1cccc(-c2cccc(C(=O)O)c2)c1O [eltrombopag, Eltrombopag]
effect on transporter‐mediated uptake of pitavastatin ([1]; 30 nmol/mL eltrombopag, 15 minute preincubation, overcome at 10–100 nmol/mL pitavastatin): reduced | F T.X, fraction transported ([1]; CLup.X/(CLup.X+Pdif.X), Eq. 4): 0.12 (0.09–0.2) | DV = amount of measured pitavastatin and/or eltrombopag ([1]; ID 29, pitavastatin AMT 10 nmol at TIME 15, TIME 15.5 min (normalised to post eltrombopag incubation)): 1035.93 nmol | DV = amount of measured pitavastatin and/or eltrombopag ([1]; ID 29, pitavastatin AMT 10 nmol at TIME 15, TIME 16 min): 1126.83 nmol | DV = amount of measured pitavastatin and/or eltrombopag ([1]; ID 29, pitavastatin AMT 10 nmol at TIME 15, TIME 17 min): 1088.94 nmol | DV = amount of measured pitavastatin and/or eltrombopag ([1]; ID 29, pitavastatin AMT 10 nmol at TIME 15, TIME 20 min): 1007.88 nmol | DV = amount of measured pitavastatin and/or eltrombopag ([1]; ID 29, pitavastatin AMT 10 nmol at TIME 15, TIME 25 min): 1166.93 nmol | DV = amount of measured pitavastatin and/or eltrombopag ([1]; ID 29, pitavastatin AMT 10 nmol at TIME 15, TIME 45 min): 1002.58 nmol | DV = amount of measured pitavastatin and/or eltrombopag ([1]; ID 30, pitavastatin AMT 10 nmol at TIME 15, TIME 15.25 min): 729.81 nmol | DV = amount of measured pitavastatin and/or eltrombopag ([1]; ID 30, pitavastatin AMT 10 nmol at TIME 15, TIME 15.5 min): 682.02 nmol | DV = amount of measured pitavastatin and/or eltrombopag ([1]; ID 30, pitavastatin AMT 10 nmol at TIME 15, TIME 16 min): 633.62 nmol | DV = amount of measured pitavastatin and/or eltrombopag ([1]; ID 30, pitavastatin AMT 10 nmol at TIME 15, TIME 17 min): 618.74 nmol | DV = amount of measured pitavastatin and/or eltrombopag ([1]; ID 30, pitavastatin AMT 10 nmol at TIME 15, TIME 20 min): 608.21 nmol | DV = amount of measured pitavastatin and/or eltrombopag ([1]; ID 30, pitavastatin AMT 10 nmol at TIME 15, TIME 25 min): 683.69 nmol | DV = amount of measured pitavastatin and/or eltrombopag ([1]; ID 30, pitavastatin AMT 10 nmol at TIME 15, TIME 45 min): 599.94 nmol | DV = amount of measured pitavastatin and/or eltrombopag ([1]; ID 31, pitavastatin AMT 30 nmol at TIME 15, TIME 15.25 min): 1382.52 nmol | DV = amount of measured pitavastatin and/or eltrombopag ([1]; ID 31, pitavastatin AMT 30 nmol at TIME 15, TIME 15.5 min): 1329.86 nmol | DV = amount of measured pitavastatin and/or eltrombopag ([1]; ID 31, pitavastatin AMT 30 nmol at TIME 15, TIME 16 min): 1156.33 nmol | DV = amount of measured pitavastatin and/or eltrombopag ([1]; ID 31, pitavastatin AMT 30 nmol at TIME 15, TIME 17 min): 1204.59 nmol | DV = amount of measured pitavastatin and/or eltrombopag ([1]; ID 31, pitavastatin AMT 30 nmol at TIME 15, TIME 20 min): 1196.1 nmol | DV = amount of measured pitavastatin and/or eltrombopag ([1]; ID 31, pitavastatin AMT 30 nmol at TIME 15, TIME 25 min): 890.75 nmol | DV = amount of measured pitavastatin and/or eltrombopag ([1]; ID 31, pitavastatin AMT 30 nmol at TIME 15, TIME 45 min): 983.35 nmol | DV = amount of measured pitavastatin and/or eltrombopag ([1]; ID 32, pitavastatin AMT 30 nmol at TIME 15, TIME 15.25 min): 1189.57 nmol | DV = amount of measured pitavastatin and/or eltrombopag ([1]; ID 32, pitavastatin AMT 30 nmol at TIME 15, TIME 15.5 min): 1153.93 nmol | DV = amount of measured pitavastatin and/or eltrombopag ([1]; ID 32, pitavastatin AMT 30 nmol at TIME 15, TIME 16 min): 1218.64 nmol | DV = amount of measured pitavastatin and/or eltrombopag ([1]; ID 32, pitavastatin AMT 30 nmol at TIME 15, TIME 17 min): 1146.32 nmol | DV = amount of measured pitavastatin and/or eltrombopag ([1]; ID 32, pitavastatin AMT 30 nmol at TIME 15, TIME 20 min): 1061.43 nmol | DV = amount of measured pitavastatin and/or eltrombopag ([1]; ID 32, pitavastatin AMT 30 nmol at TIME 15, TIME 25 min): 1010.46 nmol | DV = amount of measured pitavastatin and/or eltrombopag ([1]; ID 32, pitavastatin AMT 30 nmol at TIME 15, TIME 45 min): 1102.17 nmol | DV = amount of measured pitavastatin and/or eltrombopag ([1]; ID 33, pitavastatin AMT 30 nmol at TIME 15, TIME 15.25 min): 668.8 nmol | DV = amount of measured pitavastatin and/or eltrombopag ([1]; ID 33, pitavastatin AMT 30 nmol at TIME 15, TIME 15.5 min): 715.76 nmol | DV = amount of measured pitavastatin and/or eltrombopag ([1]; ID 33, pitavastatin AMT 30 nmol at TIME 15, TIME 16 min): 633.41 nmol | DV = amount of measured pitavastatin and/or eltrombopag ([1]; ID 33, pitavastatin AMT 30 nmol at TIME 15, TIME 17 min): 623.34 nmol | DV = amount of measured pitavastatin and/or eltrombopag ([1]; ID 33, pitavastatin AMT 30 nmol at TIME 15, TIME 20 min): 652.6 nmol | DV = amount of measured pitavastatin and/or eltrombopag ([1]; ID 33, pitavastatin AMT 30 nmol at TIME 15, TIME 25 min): 543.53 nmol | DV = amount of measured pitavastatin and/or eltrombopag ([1]; ID 33, pitavastatin AMT 30 nmol at TIME 15, TIME 45 min): 574.79 nmol | DV = amount of measured pitavastatin and/or eltrombopag ([1]; ID 34, pitavastatin AMT 100 nmol at TIME 15, TIME 15.25 min): 1383.49 nmol | DV = amount of measured pitavastatin and/or eltrombopag ([1]; ID 34, pitavastatin AMT 100 nmol at TIME 15, TIME 15.5 min): 1026.05 nmol | DV = amount of measured pitavastatin and/or eltrombopag ([1]; ID 34, pitavastatin AMT 100 nmol at TIME 15, TIME 16 min): 1256.06 nmol | DV = amount of measured pitavastatin and/or eltrombopag ([1]; ID 34, pitavastatin AMT 100 nmol at TIME 15, TIME 17 min): 1131.42 nmol | DV = amount of measured pitavastatin and/or eltrombopag ([1]; ID 34, pitavastatin AMT 100 nmol at TIME 15, TIME 20 min): 983.13 nmol | DV = amount of measured pitavastatin and/or eltrombopag ([1]; ID 34, pitavastatin AMT 100 nmol at TIME 15, TIME 25 min): 1130.84 nmol | DV = amount of measured pitavastatin and/or eltrombopag ([1]; ID 34, pitavastatin AMT 100 nmol at TIME 15, TIME 45 min): 1000.32 nmol | DV = amount of measured pitavastatin and/or eltrombopag ([1]; ID 36, pitavastatin AMT 100 nmol at TIME 15, TIME 15.25 min): 470.72 nmol | DV = amount of measured pitavastatin and/or eltrombopag ([1]; ID 36, pitavastatin AMT 100 nmol at TIME 15, TIME 15.5 min): 453.1 nmol | DV = amount of measured pitavastatin and/or eltrombopag ([1]; ID 36, pitavastatin AMT 100 nmol at TIME 15, TIME 16 min): 430.66 nmol | DV = amount of measured pitavastatin and/or eltrombopag ([1]; ID 36, pitavastatin AMT 100 nmol at TIME 15, TIME 17 min): 384.81 nmol | DV = amount of measured pitavastatin and/or eltrombopag ([1]; ID 36, pitavastatin AMT 100 nmol at TIME 15, TIME 20 min): 459.69 nmol | DV = amount of measured pitavastatin and/or eltrombopag ([1]; ID 36, pitavastatin AMT 100 nmol at TIME 15, TIME 25 min): 410.46 nmol | DV = amount of measured pitavastatin and/or eltrombopag ([1]; ID 36, pitavastatin AMT 100 nmol at TIME 15, TIME 45 min): 416.81 nmol | transporter‐mediated clearance (V max.up.E.WB/K m.up.E.WB) ([1]; eltrombopag, whole body scaled): 1625 mL/min/liver | K m.up.X or K I.up.X ([1]; from micro‐rate constants, Eq. 7): 3,138 ng/mL | passive efflux clearance out of the cell ([1]; k bX scaled to a clearance): 1.3 (1.05–1.95) µL/min/1 × 10^6 cells | P dif.X ([1]; k fX scaled to a clearance): 52 (40–64) µL/min/1 × 10^6 cells | k bX, passive rate constant out of the cell [1, 3]: 0.43 (0.35–0.65) /min | k fX, passive rate constant into the cell [1, 3]: 0.05 (0.04–0.06) /min | k aX, transporter association rate constant [1, 4]: 0.26 (0.23–0.31) /nmol/min | k dX, transporter dissociation rate constant [1, 4]: 1.57 (1.42–2) /min | k tX, transporter translocation rate constant [1, 4]: 0.27 (0.24–0.32) /min | V max.up..X, maximum uptake velocity ([1]; scaled to whole liver, Eq. 6): 5.1 × 10^6 ng/min/liver | P def.X, passive diffusion out of the cell ([1]; scaled to whole liver, Eq. 9): 307 mL/min/liver | V max.up ([1]; transporter rate constants transformed, Eq. 6): 49 (28–116) pmol/min/1 × 10^6 cells | AUC0−∞ (literature) [2, 5]: 145 (101–208) h•µg/mL | tmax (h) [2, 5]: 2.5 (2–4) h | Cmax ([2]; eltrombopag only, single 75 mg, plasma, mean (95% CI)): 10.9 (8.7–13.6) µg/mL | K a, absorption rate constant ([2]; eltrombopag, used for I in.max): 0.0084 min⁻¹ | F a F g, fraction absorbed multiplied by the intestinal availability ([2]; eltrombopag): 0.5 | parent in urine ([2]; eltrombopag): 0 parent in urine [ ^25 ] | V c.X, volume of the central compartment / volume of distribution ([2]; eltrombopag, plasma): 2940 [ ^5 ] mL
